Data from the NIST ThermoML archive (doi:10.1021/je060271a).

Conditions: 283.16 K, Liquid, Vibrating tube method

CCCC(=O)OCC(COC(=O)CCC)(COC(=O)CCC)COC(=O)CCC [pentaerythritol tetrabutyrate]
Conditions	mass density [kg/m3]
6243.9 kPa	1062.8
6250.7 kPa	1062.7
6257.4 kPa	1062.7
6265.2 kPa	1062.8
6271.9 kPa	1062.7
6278.8 kPa	1062.7
6300.1 kPa	1062.8
6308.2 kPa	1062.8
6314.8 kPa	1062.8
6321.7 kPa	1062.7
6328.1 kPa	1062.7
6336.4 kPa	1062.8
6343.5 kPa	1062.8
6350.2 kPa	1062.8
6357.3 kPa	1062.8
6365.3 kPa	1062.7
6372 kPa	1062.8
6379.3 kPa	1062.6
6387.5 kPa	1062.7
6394.3 kPa	1062.7
6401.4 kPa	1062.9
6408.5 kPa	1062.8
6416.8 kPa	1062.8
6423.7 kPa	1062.9
6432.1 kPa	1062.8
6439.2 kPa	1062.8
6446.1 kPa	1062.8
6453.2 kPa	1062.8
6460.5 kPa	1062.8
6469.1 kPa	1062.8
6476 kPa	1062.8
6483.3 kPa	1062.8
6491.8 kPa	1062.9
6498.7 kPa	1062.8
6505.9 kPa	1062.9
6513.4 kPa	1062.8
6522.2 kPa	1062.9
6529.1 kPa	1062.9
6536.5 kPa	1062.8
6543.9 kPa	1062.9
6552.9 kPa	1062.9
6560.5 kPa	1062.9
6567.3 kPa	1062.9
6575.9 kPa	1062.8
6583.2 kPa	1062.9
6590.8 kPa	1062.9
6598.2 kPa	1062.9
6606.8 kPa	1062.9
6614.3 kPa	1062.9
6621.5 kPa	1062.9
6630.5 kPa	1062.9
6638.3 kPa	1062.9
6645.9 kPa	1062.8
6653.6 kPa	1062.9
6662.1 kPa	1063
6669.8 kPa	1062.9
6678.8 kPa	1063
6685.9 kPa	1063
6693.8 kPa	1063
6701.4 kPa	1063.1
6710.6 kPa	1063
6718.2 kPa	1062.9
6725.8 kPa	1063
6735.1 kPa	1062.8
6742.9 kPa	1063.1
6750.9 kPa	1063
6759.3 kPa	1062.9
6766.9 kPa	1062.9
6774.9 kPa	1063
6784.2 kPa	1063
6799.4 kPa	1063
6808.2 kPa	1063.1
6815.3 kPa	1063
6822.2 kPa	1063
6830 kPa	1063.1
6835.8 kPa	1063.1
6840.7 kPa	1063.1
6845.5 kPa	1063
6861.6 kPa	1063
6890.3 kPa	1063
6919.1 kPa	1063
6948.8 kPa	1063
6983.9 kPa	1063.1
7013.2 kPa	1063.2
7043.3 kPa	1063.1
7073.9 kPa	1063.2
7111.3 kPa	1063.2
7141.9 kPa	1063.2
7172.4 kPa	1063.1
7231.8 kPa	1063.2
7286.9 kPa	1063.4
7348.1 kPa	1063.3
7377.4 kPa	1063.2
7488.6 kPa	1063.5
7519.7 kPa	1063.4
7758.9 kPa	1063.6
7783.9 kPa	1063.7
7814.3 kPa	1063.5
7838.8 kPa	1063.7
7861.2 kPa	1063.7
7886.6 kPa	1063.7
7908.5 kPa	1063.6
7930.2 kPa	1063.7
7952.2 kPa	1063.7
7978.4 kPa	1063.7
8000.3 kPa	1063.7
8022.4 kPa	1063.7
8048.9 kPa	1063.8
8071.7 kPa	1063.7
8094.5 kPa	1063.8
8121.4 kPa	1063.8
8144.2 kPa	1063.9
8166.8 kPa	1063.7
8194.2 kPa	1063.8
8217.7 kPa	1063.9
8241.7 kPa	1063.9
8269.4 kPa	1063.8
8316.5 kPa	1063.8
8340.2 kPa	1063.9
8369.1 kPa	1063.9
8393.5 kPa	1063.9
8418.1 kPa	1063.9
8448 kPa	1063.9
8472.3 kPa	1064
8501.9 kPa	1064.2
8527.3 kPa	1064
8553.2 kPa	1064.1
8580.4 kPa	1064
8605.5 kPa	1064
8631.2 kPa	1064.1
8662.6 kPa	1064
8688.3 kPa	1064
8719.9 kPa	1064.1
8746.3 kPa	1064.2
8772.8 kPa	1064.2
8799 kPa	1064.1
8831.6 kPa	1064.1
8858.5 kPa	1064.2
8886.1 kPa	1064.3
8920.4 kPa	1064.2
8949 kPa	1064.2
8976.4 kPa	1064.3
9004.9 kPa	1064.3
9038.9 kPa	1064.3
9067 kPa	1064.4
9095.4 kPa	1064.4
9129.5 kPa	1064.3
9159 kPa	1064.5
9187.9 kPa	1064.3
9222.8 kPa	1064.4
9252.1 kPa	1064.4
9282.2 kPa	1064.4
9318.6 kPa	1064.4
9349.3 kPa	1064.5
9379.8 kPa	1064.5
9411 kPa	1064.4
9447.8 kPa	1064.7
9478.5 kPa	1064.7
9515.9 kPa	1064.6
9547.2 kPa	1064.6
9578.8 kPa	1064.6
9616.9 kPa	1064.6
9649.2 kPa	1064.6
9681.5 kPa	1064.6
9714.5 kPa	1064.6
9755.2 kPa	1064.8
9788.8 kPa	1064.7
9830.3 kPa	1064.6
9864.7 kPa	1064.7
9896.4 kPa	1064.8
9925.9 kPa	1064.9
9960.2 kPa	1064.8
9989.6 kPa	1064.9
10025 kPa	1064.8
10056 kPa	1064.9
10087 kPa	1064.9
10121 kPa	1065
10145 kPa	1065.1
10167 kPa	1064.9
10189 kPa	1064.9
10215 kPa	1064.9
10238 kPa	1065
10260 kPa	1065.1
10278 kPa	1064.9
10293 kPa	1065.1
10311 kPa	1065
10327 kPa	1065
10342 kPa	1065
10358 kPa	1065
10377 kPa	1065.1
10392 kPa	1065.1
10408 kPa	1065.2
10427 kPa	1065
10443 kPa	1065.1
10459 kPa	1065.2
10478 kPa	1065.1
10494 kPa	1065.2
10510 kPa	1065.3
10526 kPa	1065.2
10545 kPa	1065.3
10561 kPa	1065.2
10578 kPa	1065.2
10597 kPa	1065.2
10613 kPa	1065.3
10630 kPa	1065.3
10646 kPa	1065.2
10666 kPa	1065.2
10682 kPa	1065.2
10699 kPa	1065.3
10719 kPa	1065.4
10735 kPa	1065.3
10755 kPa	1065.2
10773 kPa	1065.3
10789 kPa	1065.4
10806 kPa	1065.3
10827 kPa	1065.4
10845 kPa	1065.2
10863 kPa	1065.3
10879 kPa	1065.4
10900 kPa	1065.5
10917 kPa	1065.4
10934 kPa	1065.4
10955 kPa	1065.4
10972 kPa	1065.4
10990 kPa	1065.3
11010 kPa	1065.4
11028 kPa	1065.5
11046 kPa	1065.4
11067 kPa	1065.5
11086 kPa	1065.4
11104 kPa	1065.4
11122 kPa	1065.5
11144 kPa	1065.5
11162 kPa	1065.7
11180 kPa	1065.5
11202 kPa	1065.6
11220 kPa	1065.5
11238 kPa	1065.6
11257 kPa	1065.4
11279 kPa	1065.6
11298 kPa	1065.7
11316 kPa	1065.6
11339 kPa	1065.7
11479 kPa	1065.6
11499 kPa	1065.8
11522 kPa	1065.7
11541 kPa	1065.8
11561 kPa	1065.7
11584 kPa	1065.8
11604 kPa	1065.8
11624 kPa	1065.8
11643 kPa	1065.8
11970 kPa	1065.9
12038 kPa	1066.1
12063 kPa	1066.2
12084 kPa	1066.1
12106 kPa	1066.2
12132 kPa	1066
12154 kPa	1066.1
12175 kPa	1066.1
12198 kPa	1066.1
12224 kPa	1066.2
12246 kPa	1066.2
12268 kPa	1066.1
12294 kPa	1066.2
12316 kPa	1066.3
12338 kPa	1066.3
12365 kPa	1066.3
12388 kPa	1066.2
12410 kPa	1066.3
12437 kPa	1066.3
12460 kPa	1066.2
12483 kPa	1066.3
12510 kPa	1066.3
12533 kPa	1066.3
12556 kPa	1066.3
12584 kPa	1066.4
12607 kPa	1066.4
12630 kPa	1066.3
12659 kPa	1066.4
12682 kPa	1066.4
12705 kPa	1066.3
12734 kPa	1066.3
12758 kPa	1066.4
12784 kPa	1066.6
12809 kPa	1066.5
12838 kPa	1066.5
12862 kPa	1066.4
12886 kPa	1066.5
12911 kPa	1066.6
12940 kPa	1066.6
12965 kPa	1066.6
12994 kPa	1066.6
